How the values were obtained:
mouse DC = assay: Co-immunoprecipitation with class II IA^b from mouse DC; format: cell-based
From the text: In FIG. 5A, the distribution of class II (labeled with APC-conjugated antibody) and CD80/CD86 molecules (labeled with PE-conjugated antibodies) was visualized by FRET following treatment of human monocyte derived DC with B7-DC XAb (open histograms) or with isotype control antibody (filled histograms). For FIG. 5B, mouse bone marrow derived DC were labeled, treated, and analyzed as in FIG. 5A. FIG. 5C indicates the inability of the IA^b specific IgM antibody 25-9-3 (open dark histograms), B7-DC XAb (open light histograms), and isotype control antibody treated samples (filled histograms) to induce FRET (top left and middle panels). Binding of the class II specific IgM antibody to the mouse DC analyzed is shown (top right panel). FIG. 5D indicates the ability of B7-DC-specific IgG antibody (open histograms on left of each panel) or no IgG antibody (open histograms on right of each panel) to inhibit FRET induced by the MTAb B7-DC XAb. Absence of FRET induced by Isotype control antibody is shown in reference (filled histograms). For FIGS. 5E and 5F, immunoprecipitates of membrane proteins from B7-DC XAb or control antibody treated DC were isolated using biotin tagged IA^b-specific KH74 antibody. The precipitates were analyzed by Western blot using mouse-specific TREM-2 and CD40 antibodies as probes. […]

B16 melanoma cells = conditions: mice injected intravenously with antibody directly or DCs pre-treated with antibody and tumor antigen; cited from earlier work
B16-Ova cells = assay: B16-Ova tumor challenge with Ova-pulsed antibody-treated DCs; format: in vivo, mouse; conditions: mice given wild type DCs or B7DC reconstituted knockout DCs treated with antibody
Procedure: FIG. 17 is a graph depicting protection of mice from B16-Ova tumor challenge by injection of Ova-pulsed DCs expressing the Kb-peptide constructs treated with MTabs. Tumor area was measured daily, with tumor area on day 11 represented in the graph.
DCs treated with hIgM12 can induce potent anti-tumor immunity. […] A variation of this model was used to determine whether Kb-peptide expressing DCs could induce protective tumor immunity. C57BL6 mice were injected subcutaneously in the right flank with 5×10^5 B16-Ova cells, a B16 variant engineered to express ovalbumin. Wild type DCs or B7DC−/− DCs transduced with mB7DC or the Kb constructs were pulsed with 10 ug/mL ovalbumin and treated with 10 ug/mL of either hIgM12 or hIgM22, 24 hours prior to injection. Before injection, DCs were washed and resuspended in 200 μL, HBSS. 10^6 DCs were injected intravenously by tail vein concurrent to B16 injection. Three mice were used in each treatment group. Tumor area was measured daily, and mice were sacrificed when tumor area reached 289 mm^2. […] Thus, DC expressing Kb-peptide fusions were able to induce protective tumor immunity.

human DC = assay: Calcium flux assay, human DC; format: cell-based
Procedure: Changes in the levels of intracellular Ca^2+ were assessed in Indol-loaded cells by flow cytometry as described previously (Takahashi et al. (2005) J. Exp. Med. 201:647-657). Briefly, 5×10^6 DC/ml were incubated with 5 μM Indo-1 (Calbiochem) at 37° C. for 30 minutes. The cells were washed twice in serum free media and resuspended at 10^6/ml in PBS containing 0.5% BSA. The samples were analyzed by flow cytometry using a UV laser. Violet (390 nm) and blue (500 nm) fluorescence emissions were recorded. Baseline was recorded for two minutes. Antibody was added to the cell suspension (10 μg/ml of control antibody or B7-DC XAb) and the measurements were recorded for 8 additional minutes. In blocking experiments, mouse or human DC were pre-incubated with 10 μg/ml of purified anti-mouse B7-DC antibody (TY-25) or purified anti-human B7-DC antibody (MIH18) for 15 minutes, followed by collection of data for calcium flux as described above. Ionomycin added at 1 μg/ml after 2 minutes served as a positive control. The blue to violet ratio was calculated using FlowJo software (Tristar, Ashland, Oreg.).

In the case of “B7-DC XAb: human monoclonal IgM from a Waldenstrom's macroglobulinemia patient that binds and cross-links B7-DC on DC”, the “association of TREM-2 with class II IA^b by co-immunoprecipitation” value (mouse DC; lysates 5 minutes after treatment) is listed as “co-immunoprecipitation of TREM-2 with the class II molecule IA^b”, the “recruitment of CD40 to the cap, co-precipitation with class II” value (mouse DC; mouse DC) is listed as “co-precipitation with class II molecules” and the “protection against B16 melanoma challenge” value (B16 melanoma cells) is listed as “protected against challenge by B16 melanoma cells”. The “protection from tumor outgrowth” value (B16-Ova cells) was “successfully protected from tumor outgrowth” and the intracellular calcium signal (human DC) was “prolonged calcium signals”.

Source: patent publication US11274131B2, “IgM-mediated receptor clustering and cell modulation” (MAYO FOUNDATION FOR MEDICAL EDUCATION AND RESEARCH, priority 2007, dated 2022)
